# Source: US4605744A, “Imidazole derivatives” (Hoffmann-La Roche Inc., priority 1985, dated 1986)
# Where a name gives a salt, the structure may show the parent alone. Read-outs that look alike come from different tables or passages of the source.
# Tests used:
# Experiment in all cases: In vitro antibacterial activity (MIC)
# Format in all cases: cell-based
# S. marcescens S3 = settings: Serratia marcescens; S. marcescens S3; read-out: MIC
# How it was run: (§1)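 Twofold-style dilution series (128 to 0.008 μg/ml) made in Mueller-Hinton broth, dispensed, then inoculated with 1.5 μl of a 10^-2 overnight-culture dilution. Plates sealed, held overnight at 37° C, inspected with a viewer.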
# E. coli 387-1 = settings: Escherichia coli, 3871, E. coli 387-1; read-out: MIC
# How it was run: as §1
# E. cloacae 9570A = settings: Enterobacter cloacae, read-out: MIC
# How it was run: as §1
# E. cloacae 9295 = settings: Enterobacter cloacae, 9295, E. cloacae 9295; read-out: MIC
# How it was run: as §1
# P. aeruginosa 8710 = settings: Pseudomonas aeruginosa; P. aeruginosa 8710; read-out: MIC
# How it was run: as §1
# P. aeruginosa 503-820 = settings: Pseudomonas aeruginosa, 503820; P. aeruginosa 503-820; read-out: MIC
# How it was run: as §1
# C. freundii 8ASM = settings: Citrobacter freundii, 8ASM, C. freundii 8ASM; read-out: MIC
# How it was run: as §1
# E. cloacae 5699 = settings: Enterobacter cloacae, 5699, E. cloacae 5699; read-out: MIC
# How it was run: as §1
# S. marcescens S714 = settings: Serratia marcescens, S714, S. marcescens S714; read-out: MIC
# How it was run: as §1
# P. mirabilis 90 = settings: Proteus mirabilis, 90, P. mirabilis 90; read-out: MIC
# How it was run: as §1
# K. pneumoniae 35 = settings: Klebsiella pneumoniae; K. pneumoniae 35; read-out: MIC
# How it was run: as §1
# S. marcescens S5 = settings: Serratia marcescens, S5, S. marcescens S5; read-out: MIC
# How it was run: as §1
# S. pneumoniae 6301 = settings: Streptococcus pneumoniae, 6301
# How it was run: as §1
# E. coli 48 = settings: Escherichia coli, 48, E. coli 48; read-out: MIC
# How it was run: as §1
# E. coli 5152 = tested on: E. coli 5152
# How it was run: as §1
# P. vulgaris 100 = settings: Proteus vulgaris; P. vulgaris 100; read-out: MIC
# How it was run: as §1
# S. marcescens S2 = settings: Serratia marcescens; S. marcescens S2; read-out: MIC
# How it was run: as §1
# E. aerogenes 83 = settings: Klebsiella aerogenes, 83, E. aerogenes 83; read-out: MIC
# How it was run: as §1
# P. vulgaris 101 = settings: Proteus vulgaris, 101, P. vulgaris 101; read-out: MIC
# How it was run: as §1
# S. aureus Giorgio = settings: Staphylococcus aureus
# How it was run: as §1
# C. freundii CDC6 = settings: Citrobacter freundii, CDC6, C. freundii CDC6; read-out: MIC
# How it was run: as §1
# S. schottmuelleri = settings: read-out: MIC
# How it was run: as §1
# K. pneumoniae 503-964 = settings: Klebsiella pneumoniae, 503964; K. pneumoniae 503-964; read-out: MIC
# How it was run: as §1
# S. marcescens S1 = settings: Serratia marcescens, S1, S. marcescens S1; read-out: MIC
# How it was run: as §1
# S. marcescens S4 = settings: Serratia marcescens, S4, S. marcescens S4; read-out: MIC
# How it was run: as §1
# E. coli R-563 = settings: Escherichia coli, R563, E. coli R-563; read-out: MIC
# How it was run: as §1
# P. aeruginosa 8780 = settings: Pseudomonas aeruginosa; P. aeruginosa 8780; read-out: MIC
# How it was run: as §1
# P. aeruginosa 5700 = settings: Pseudomonas aeruginosa, 5700, P. aeruginosa 5700; read-out: MIC
# How it was run: as §1
# S. marcescens S147 = settings: Serratia marcescens; S. marcescens S147; read-out: MIC
# How it was run: as §1
# P. mirabilis 620A = settings: Proteus mirabilis, 620A, P. mirabilis 620A; read-out: MIC
# How it was run: as §1
# K. pneumoniae 5096 = settings: Klebsiella pneumoniae; K. pneumoniae 5096; read-out: MIC
# How it was run: as §1
# E. coli 503-455 = tested on: E. coli 503-455
# How it was run: as §1
# E. cloacae 214 = settings: Enterobacter cloacae, 214, E. cloacae 214; read-out: MIC
# How it was run: as §1
# S. pyogenes 503-782 = settings: Streptococcus pyogenes, 503782; S. pyogenes 503-782; read-out: MIC
# How it was run: as §1
# S. faecalis C1 = settings: Enterococcus faecalis; S. faecalis C1; read-out: MIC
# How it was run: as §1
# P. mirabilis 190 = settings: Proteus mirabilis, 190, P. mirabilis 190; read-out: MIC
# How it was run: as §1
# E. coli 4 = tested on: E. coli 4
# How it was run: as §1
# E. aerogenes 503-478 = settings: Klebsiella aerogenes, 503478, E. aerogenes 503-478; read-out: MIC
# How it was run: as §1
# C. diversus CDC 1663-72 = settings: Citrobacter koseri, CDC166372; C. diversus CDC 1663-72; read-out: MIC
# How it was run: as §1
# K. pneumoniae 4964 = tested on: K. pneumoniae 4964
# How it was run: as §1
# E. cloacae P99 = settings: Enterobacter cloacae, P99, E. cloacae P99
# How it was run: as §1
# S. pneumoniae 6302 = settings: Streptococcus pneumoniae, 6302, S. pneumoniae 6302; read-out: MIC
# How it was run: as §1
Structure (SMILES),MIC (S. marcescens S3) [µg/mL],MIC (E. coli 387-1) [µg/mL],MIC (E. cloacae 9570A) [µg/mL],MIC (E. cloacae 9295) [µg/mL],MIC (P. aeruginosa 8710) [µg/mL],MIC (C. freundii 8ASM) [µg/mL],MIC (E. cloacae 5699) [µg/mL],MIC (S. marcescens S714) [µg/mL],MIC (P. mirabilis 90) [µg/mL],MIC (K. pneumoniae 35) [µg/mL],MIC (S. marcescens S5) [µg/mL],MIC (E. coli 48) [µg/mL],MIC (P. vulgaris 100) [µg/mL],MIC (S. marcescens S2) [µg/mL],MIC (E. aerogenes 83) [µg/mL],MIC (P. vulgaris 101) [µg/mL],MIC (C. freundii CDC6) [µg/mL],MIC (K. pneumoniae 503-964) [µg/mL],MIC (S. marcescens S1) [µg/mL],MIC (S. marcescens S4) [µg/mL],other results
"CC1(C)S[C@@H]2[C@H](N=CN3CCC(CCn4ccnc4)CC3)C(=O)N2[C@H]1C(=O)O [B, [2S-2alpha,5alpha,6beta)]-6-[[[4-[2-(1H-imidazol-1-yl)ethyl]-1-piperidinyl]methylene]amino]-3,3-dimethyl-7-oxo-4-thia-1-azabicyclo[3.2.0]heptane-2-carboxylic acid hydrate hydrochloride]",0.5,8,0.5,0.5,> 128,0.062,0.5,1,2,1,2,0.25,8,0.5,0.5,1,0.25,0.25,0.5,1,"MIC (P. aeruginosa 503-820): > 128 µg/mL; MIC (S. pneumoniae 6301): 4 µg/mL; MIC (E. coli 5152; Escherichia coli, 5152): 16 µg/mL; MIC (S. aureus Giorgio): 32 µg/mL; MIC (S. schottmuelleri): 0.25 µg/mL; MIC (E. coli R-563): 8 µg/mL; MIC (P. aeruginosa 8780): > 128 µg/mL; MIC (P. aeruginosa 5700): > 128 µg/mL; MIC (S. marcescens S147): 0.5 µg/mL; MIC (P. mirabilis 620A): > 128 µg/mL; MIC (K. pneumoniae 5096): 0.25 µg/mL; MIC (E. coli 503-455; Escherichia coli, 503455): 1 µg/mL; MIC (E. cloacae 214): 1 µg/mL; MIC (S. pyogenes 503-782): 8 µg/mL; MIC (S. faecalis C1): > 128 µg/mL; MIC (P. mirabilis 190): 0.5 µg/mL; MIC (E. coli 4; Escherichia coli, 4): 8 µg/mL; MIC (E. aerogenes 503-478): 2 µg/mL; MIC (C. diversus CDC 1663-72): 0.25 µg/mL; MIC (K. pneumoniae 4964; Klebsiella pneumoniae, 4964): 0.5 µg/mL"
"CC1(C)S[C@@H]2[C@H](N=CN3CCC(Cc4ncc[nH]4)CC3)C(=O)N2[C@H]1C(=O)O [Q, [2S-(2alpha,5alpha,6beta)]-6-[[[4-(1H-imidazol-2-yl-methyl)-1-piperidinyl]methylene]amino]-3,3-dimethyl-7-oxo-4-thia-1-azabicyclo[3.2.0]heptane-2-carboxylic acid hydrochloride]",0.125,0.062,0.125,4,128,0.062,4,0.25,0.5,0.25,0.5,8,1,0.125,4,8,64,0.5,0.125,0.5,"MIC (E. coli 5152; Escherichia coli, 5152, E. coli 5152, read-out: MIC): 64 µg/mL; MIC (S. aureus Giorgio; S. aureus Giorgio, read-out: MIC): 8 µg/mL; MIC (E. coli R-563): 0.062 µg/mL; MIC (E. cloacae P99): 8 µg/mL; MIC (S. marcescens S147): 0.125 µg/mL; MIC (P. mirabilis 620A): > 128 µg/mL; MIC (K. pneumoniae 5096): 128 µg/mL; MIC (E. coli 503-455; Escherichia coli, 503455, E. coli 503-455, read-out: MIC): 1 µg/mL; MIC (E. cloacae 214): 0.5 µg/mL; MIC (S. pneumoniae 6302): 2 µg/mL; MIC (P. mirabilis 190): 0.25 µg/mL; MIC (E. coli 4; Escherichia coli, 4, E. coli 4, read-out: MIC): 0.062 µg/mL; MIC (E. aerogenes 503-478): 16 µg/mL; MIC (C. diversus CDC 1663-72): 0.062 µg/mL; MIC (K. pneumoniae 4964; Klebsiella pneumoniae, 4964, K. pneumoniae 4964, read-out: MIC): 4 µg/mL"
